This note sets out measurements from patent US9040563B2, “Dual inhibitors of farnesyltransferase and geranylgeranyltransferase I” (H. Lee Moffitt Cancer Center and Research Institute, Inc., priority 2010, dated 2015).

Each structure is given as a SMILES string. Where “and” joins values, the source holds several entries; their conditions need not be identical. Equal entries are not always repeated.

The subject of one assay is Panc-1. Put plainly: MTT proliferation/viability assay. The assay is classed as cell-based, human. The conditions noted are these: Panc-1, pancreas. The method, then: (§1) To determine if FGTI-2734 is more efficacious than FT or GGT-1 inhibitors, 10 human cancer pancreatic cell lines, 2 human breast cancer cell lines, 2 human lung cancer cell lines and one human prostate cancer cell line were treated with these inhibitors and determined their effects on the proliferation of these cells by MTT assay.

The test system of the next assay is MiaPaca. Put plainly: MTT proliferation/viability assay. The assay is classed as cell-based, human. The method, then: as §1
Another assay deals with HPNE-K-ras. The experiment in a line: MTT proliferation/viability assay. The assay is classed as cell-based, human. The conditions noted are these: pancreas. The method, then:
as §1

Another assay deals with ASPC-1. The experiment in a line: MTT proliferation/viability assay. The assay is classed as cell-based, human. The method, then:
as §1

The next assay has as its system BxPC3. The experiment in a line: MTT proliferation/viability assay. The assay is classed as cell-based, human. How it is done: as §1
In a further assay the test system is HPDE-C7-Kras. Put plainly: MTT proliferation/viability assay. The assay is classed as cell-based, human. Conditions: pancreas. The method, then:
as §1

For a further assay, the system named is Capan-2. Put plainly: MTT proliferation/viability assay. The assay is classed as cell-based, human. How it is done: as §1
The next assay has as its system HPNE. The experiment in a line: MTT proliferation/viability assay. The assay is classed as cell-based, human. Conditions: pancreas. How it is done: as §1
Another assay concerns HPDE-C7. The experiment in a line: MTT proliferation/viability assay. Conditions: HPDE-C7, pancreas. In kind it is cell-based, human. How it is done:
as §1

The test system of the next assay is SW1990. Put plainly: MTT proliferation/viability assay. The assay is classed as cell-based, human. The method, then: as §1
The test system of another assay is MCF-7. Put plainly: MTT proliferation/viability assay. In kind it is cell-based, human. The method, then:
as §1

The next assay concerns A549. The experiment in a line: MTT proliferation/viability assay. The assay is classed as cell-based, human. Conditions: A549, lung. The method, then:
as §1

Assay [1] relates to Rap-1A geranylgeranylation. The experiment in a line: Western blot of Rap-1A geranylgeranylation/processing (antibody to un-geranylgeranylated Rap-1A) in treated cells. In kind it is cell-based. The method, then: The ability of FGTI-2734 to inhibit HDJ-2 farnesylation and Rap-1A geranylgeranylation in human cancer cells was determined next. To this end, the MiaPaca pancreatic cancer cell line and 2 breast cancer cell lines (MDA-MB-468 and MDA-MB-231) were treated with various concentration of the dual inhibitor FGTI-2734, the GGT-1 inhibitor GGTI-2418 or the FT inhibitor FTI-2153 and processed for Western blotting.
Testing has shown that the dual farnesyltransferase and geranygeranyltransferase-I inhibitors are effective on pancreatic tumors (90% of all cases), colonic tumors (30% of all cases), lung tumors (30% of all cases), and breast tumors (10% of all cases). NIH-3T3 cells that overexpress oncogenic mutant K-Ras, seen in FIG. 14, and MDA-MB-231 breast cancer cells with a naturally occurring K-Ras mutation, seen in FIG. 15, were treated with indicated concentrations of FGTI-2734, GGTI-2417 or FTI-2153. FGTI-2734 but not FTI-2153 or GGTI-2417 inhibited K-Ras prenylation. As expected, GGTI-2417 inhibited the processing of Rap1 but not HDJ-2 whereas FTI-2153 inhibited the processing of HDJ-2 but not Rap1.
Mammalian target of rapamycin (mTOR) is a serine/threonine phosphatidylinositol 3-kinase-related kinase responsible for cell growth, proliferation, cell survival, protein synthesis, and transcription. Alteration of the mTOR pathway, either through activation of oncogenes or inactivation of tumor suppressors, disrupts a signaling equilibrium and causes malignant transformation. Studies have shown that phosphorylated S6 (pS6) is related to mTOR pathway alterations, and is useful in determining PI3K-based cancer therapies (Aziz, et al. Phosphatidylinositol-3-Kinase as a Therapeutic Target in Melanoma. Clin Cancer Res. 2009, 15; 3029-3036). Two breast adenocarcinoma and a pancreatic carcinoma cell line were treated with indicated concentrations of FGTI-2734, GGTI-2417 or FTI-2153. Protein extracts were run on a Western Blot using antibody against pS6 (ser240/244) (Cell Signaling Technology, Inc., Danvers, Mass.). […]

In the next assay the test system is DU-145. Put plainly: MTT proliferation/viability assay. In kind it is cell-based, human. The method, then:
as §1

The test system of the next assay is NCI-H460. The experiment in a line: MTT proliferation/viability assay. In kind it is cell-based. Conditions: Homo sapiens, NCI-H460, lung. The method, then: as §1
A further assay concerns the target hFTase (Homo sapiens, UniProt P49354+P49356). Put plainly: In vitro hFTase inhibition: incorporation of [3H]FPP into recombinant H-Ras-CVLS. In kind it is biochemical.
Another assay concerns farnesylation of H-Ras. The experiment in a line: Whole cell inhibition of H-Ras processing (farnesylation), immunoblot, oncogenic H-Ras-transformed NIH3T3 cells. In kind it is cell-based, mouse. The conditions noted are these: Mus musculus, NIH3T3, whole cells, oncogenic H-Ras-transformed NIH3T3; n = 3 unless stated; read-out: H-Ras processing IC50. How it is done:
(§2) In vitro inhibition assays for FTase and GGTase-I were conducted by measuring the incorporation of [^3H]FPP and [^3H]GGPP into recombinant H-Ras-CVLS and H-Ras-CVLL, respectively, as previously described (Vogt, et al., Protein geranylgeranylation, not farnesylation, is required for the G1 to S phase transition in mouse fibroblasts. Oncogene, 1996, 13, 1991-1999). The in vivo inhibition of farnesylation and geranylgeranylation was determined based on the level of inhibition by synthetic compounds of H-Ras and Rap1A processing, respectively (Sun, et al., Both farnesyltransferase and geranylgeranyltransferase I inhibitors are required for inhibition of oncogenic K-Ras prenylation but each alone is sufficient to suppress human tumor growth in nude mouse xenografts. Oncogene, 1998, 16, 1467-1473). […] The separated proteins were transferred to nitrocellulose and immunoblotted using an anti-Ras antibody (Y13-258) or an anti-Rap1A antibody (SantaCruz Biotechnology, Santa Cruz, Calif.), respectively. Antibody reactions were visualized using either peroxidase-conjugated goat anti-rat IgG or goat anti-rabbit IgG (Jackson ImmunoResearch, West Grove, Pa.) and an enhanced chemiluminescence detection system.
(§3) Briefly, in vitro inhibition assays for hFTase and GGTase-I were carried out by measuring the incorporation of [^3H]FPP and [^3H]GGPP into recombinant H-Ras-CVLS and H-Ras-CVLL, respectively, as described previously (Vogt et al., Protein geranylgeranylation, not farnesylation, is required for G1 to S phase transition in mouse fibroblasts. Oncogene. 1996; 13:1991-1999). Whole cell inhibition of farnesylation and geranylgeranylation were determined based on the level of inhibition by synthetic compounds of H-Ras and Rap1A processing, respectively (Sun, et al., Both farnesyltransferase and geranylgeranyltransferase I inhibitors are required for inhibition of oncogenic K-Ras prenylation but each alone is sufficient to suppress human tumor growth in nude mouse xenografts. Oncogene. 1998; 16:1467-1473).

In assay [2] the test system is geranylgeranylation of Rap1A. The experiment in a line: Whole cell inhibition of Rap1A processing (geranylgeranylation), immunoblot, oncogenic H-Ras-transformed NIH3T3 cells. The conditions noted are these: whole cells, oncogenic H-Ras-transformed NIH3T3; n = 3 unless stated; read-out: Rap1A processing IC50. In kind it is cell-based, mouse. How it is done:
as §2, §3

The target in another assay is GGTase-I (Homo sapiens, UniProt P49354+P53609). The experiment in a line: In vitro GGTase-I inhibition: incorporation of [3H]GGPP into recombinant H-Ras-CVLL. In kind it is biochemical. The conditions noted are these: average of n = 3 unless stated, errors are standard deviations, read-out: GGTase-1 IC50.

For `CSCC[C@H](NC(=O)c1ccc(CNCc2cnc[nH]2)cc1-c1ccccc1C)C(=O)O` [FTI-2148], the 50% inhibitory concentration (IC50) in the assay on Panc-1 was > 100 µM; with MiaPaca (pancreas), 1200 nM; in the assay with HPNE-K-ras, > 100 µM; with ASPC-1 (ASPC-1, pancreas) it was > 100 µM; in the assay with BxPC3 (BxPC3, pancreas), > 100 µM; in the assay on HPDE-C7-Kras, > 100 µM. In addition, the IC50 in the assay with Capan-2 (Capan-2, pancreas) is > 100 µM; in the assay with HPNE, > 100 µM; in the assay on HPDE-C7, > 100 µM; in the assay with SW1990 (SW1990, pancreas) it was > 100 µM; in the assay on MCF-7 (MCF-7, breast) it was > 100 µM and 50 µM; in the assay with A549 it was > 100 µM.
Regarding `COC(=O)[C@H](CC(C)C)NC(=O)N1CCN(Cc2nc[nH]c2C)C(=O)[C@@H]1Cc1ccccc1` [GGTI-2417, reference compound], in assay [1] (NIH-3T3 overexpressing mutant K-Ras and MDA-MB-231, FIGS. 14, 15), the “inhibition of Rap1 processing” value is given as “inhibited”.
Take `Cc1nc[nH]c1CN1CCN(C(=O)N[C@@H](CC(C)C)C(=O)O)[C@@H](Cc2ccccc2)C1=O` [GGTI-2418]: the IC50 is > 100 µM in the assay with Panc-1 (Homo sapiens); > 100000 nM with MiaPaca (Homo sapiens, MIA PaCa-2, pancreas); > 100 µM with HPNE-K-ras (Homo sapiens); > 100 µM in the assay on ASPC-1 (Homo sapiens, ASPC1, ASPC-1, pancreas); > 100 µM in the assay on BxPC3 (Homo sapiens, BXPC-3, BxPC3, pancreas); > 100 µM in the assay on HPDE-C7-Kras (Homo sapiens). For the same compound, the IC50 in the assay with Capan-2 (Homo sapiens, Capan-2, Capan-2, pancreas) is > 100 µM; in the assay on HPNE (Homo sapiens) it was > 100 µM; in the assay on DU-145 (DU-145, prostate), > 50 µM; with DU-145 (Homo sapiens, DU-145, DU-145, prostate), > 100 µM; with HPDE-C7 (Homo sapiens), > 100 µM; in the assay on SW1990 (Homo sapiens, SW1990, SW1990, pancreas) it was > 100 µM. Besides, the IC50 was > 100 µM in the assay on MCF-7 (Homo sapiens, MCF7, MCF-7, breast); > 100 µM with A549 (Homo sapiens); > 100 µM in the assay with NCI-H460. The “inhibition of Rap-1A geranylgeranylation” value in assay [1] (MiaPaca, MDA-MB-468 and MDA-MB-231 human cancer cells, FIG. 13) is “inhibited selectively”.
Turning to `Cn1cnc(S(=O)(=O)N(CCN(Cc2cncn2C)c2ccc(Br)cc2)Cc2ccccc2)c1` [compound 5], the “selectivity (ratio of GGTase-I to FTase IC50s)” value at hFTase (GGTase-I IC50 / hFTase IC50) worked out at 6.7. Also, the IC50 was 79 ± 30 nM at hFTase (in vitro, average of three independent assays (n = 3) unless stated, errors are standard deviations); 1600 ± 1300 nM in the assay on farnesylation of H-Ras; > 10 µM in [2]; 530 ± 170 nM at GGTase-I.
